Results published in patent publication US20090118286A1, “Heterobicyclic Acrylamides” (Bayer Cropscience AG, priority 2005, published 2009).
Where two headings read alike, the source gives them in different places.

Assays:
[1] = test system: Botrytis cinerea; assay: Botrytis test (bean)/protective; format: in vivo; details: application rate 500 ppm, protective, evaluation 2 days after inoculation
Description: [table] To produce a suitable preparation of active compound, 1 part by weight of active compound is mixed with the stated amounts of solvents and emulsifier, and the concentrate is diluted with water to the desired concentration. To test for protective activity, young plants are sprayed with the preparation of active compound at the stated application rate. After the spray coating has dried on, 2 small pieces of agar colonized by Botrytis cinerea are placed onto each leaf. The inoculated plants are placed in a dark chamber at about 20° C. and 100% relative atmospheric humidity. 2 days after the inoculation, the size of the infected areas on the leaves is evaluated. 0% means an efficacy which corresponds to that of the control, whereas an efficacy of 100% means that no infection is observed.

[2] = test system: Sphaerotheca fuliginea; assay: Sphaerotheca test (cucumber)/protective; format: in vivo; details: application rate 500 ppm, protective, evaluation 7 days after inoculation
Description: [table] To produce a suitable preparation of active compound, 1 part by weight of active compound is mixed with the stated amounts of solvent and emulsifier, and the concentrate is diluted with water to the desired concentration. To test for protective activity, young cucumber plants are sprayed with the preparation of active compound at the stated application rate. 1 day after the treatment, the plants are inoculated with a spore suspension of Sphaerotheca fuliginea. The plants are then placed in a greenhouse at 70% relative atmospheric humidity and a temperature of 23° C. Evaluation is carried out 7 days after the inoculation. 0% means an efficacy which corresponds to that of the control, whereas an efficacy of 100% means that no infection is observed.

[3] = log P determination by HPLC (EEC Directive 79/831 Annex V.A8, gradient method); format: physicochemical; details: HPLC, gradient method, acetonitrile/0.1% strength aqueous phosphoric acid or formic acid
[4] = test system: caterpillars of the army worm (Spodoptera frugiperda); assay: Spodoptera frugiperda test, SPODFR spray treatment; format: in vivo; details: foliar, 168 h, 500 g a. i./ha, spray treatment of maize leaf discs, 7 d, read-out: % 7 d (effect in %, caterpillars killed)
Description: (§1) [table] To produce a suitable preparation of active compound, 1 part by weight of active compound is mixed with the stated amounts of solvents and emulsifier, and the concentrate is diluted with emulsifier-containing water to the desired concentration. Discs of maize leaves (Zea mays) are sprayed with a preparation of active compound of the desired concentration and, after drying, populated with caterpillars of the army worm (Spodoptera frugiperda). After the desired period of time, the effect in % is determined. 100% means that all caterpillars have been killed; 0% means that none of the caterpillars have been killed.

[5] = test system: larvae of the mustard beetle (Phaedon cochleariae); assay: Phaedon test, PHAECO spray treatment; format: in vivo; details: foliar, 168 h, 500 g a. i./ha, spray treatment of Chinese cabbage leaf discs, 7 d, read-out: % 7 d (effect in %, beetle larvae killed)
Description: as §1, with “of Chinese cabbage” for “of maize”, “leaves (Brassica pekinensis)” for “leaves (Zea mays)”, “with larvae” for “with caterpillars”, “the mustard beetle (Phaedon cochleariae).” for “the army worm (Spodoptera frugiperda).”, “all beetle larvae” for “all caterpillars”, “the beetle larvae” for “the caterpillars”

SMILES | Efficacy in % [1] | Efficacy in % [2] | chromatographic logP ([3]; read-out: Physical data: log P) | pest or weed control at 500 g/ha [4] | pest or weed control at 500 g/ha [5] | chromatographic logP ([3]; read-out: Physical data: logP) | chromatographic logP ([3]; read-out: Physical data (logP))
CCN(CC)C(=O)/C=C/c1c(-c2ccccc2)nc2sc(C(F)(F)F)nn12 [Example 0912] | 93% | 95% | – | – | – | – | –
CC(NC(=O)/C=C/c1c(-c2ccc(F)cc2Cl)nc2sc(C(F)(F)F)nn12)C(F)(F)F (stereo not shown) [Example 0598] | – | – | 3.79 | 100% | 100% | – | –
O=C(/C=C/c1c(-c2ccc(F)cc2Cl)nc2sc(C(F)(F)F)nn12)NC1CC1 [Example 0585] | – | – | 3.03 | 100% | 100% | – | –
CC(C)NC(=O)/C=C/c1c(-c2ccccc2Cl)nc2sc(C(F)(F)Cl)nn12 [Example 0724] | – | – | – | 100% | 100% | 3.36 | –
O=C(/C=C/c1c(-c2ccccc2Cl)nc2sc(C(F)(F)Cl)nn12)NC1CC1 [Example 0728] | – | – | – | 100% | 100% | 3.07 | –
CC(C)CN(C)C(=O)/C=C/c1c(-c2ccccc2)nc2sc(C(F)(F)F)nn12 [Example 0913] | – | 90% | – | – | – | – | –
O=C(/C=C/c1c(-c2cccc(Cl)c2)nc2sc(C(F)(F)F)nn12)N1CCOCC1 [Example 0142] | – | – | – | – | 100% | – | 3.31
C=CCN(C)C(=O)/C=C/c1c(-c2ccc(Cl)cc2)nc2sc(C(F)(F)F)nn12 [Example 0067] | – | 90% | – | – | – | – | 3.95
CC(NC(=O)/C=C/c1c(-c2ccccc2Cl)nc2sc(C(F)(F)F)nn12)c1ccccn1 (stereo not shown) [Example 0203] | – | – | – | 100% | 83% | – | 2.39
CCCC(C)NC(=O)/C=C/c1c(-c2ccccc2Cl)nc2sc(C(F)(F)Cl)nn12 (stereo not shown) [Example 0734] | – | – | – | 100% | 100% | 4.06 | –
CC(C)NC(=O)/C=C/c1c(-c2ccccc2Cl)nc2sc(C(F)(F)F)nn12 [Example 0148] | – | – | – | 100% | 83% | – | 3.13
